Experimental data taken from PubChem BioAssay (NCI).
Several values for one entry are separate records, joined by “and”; a condition that tells them apart may be missing. Equal values may be shown once.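 Growth conditions: 96-well plates. Treatment: test compound, 48 hours, 5 concentrations. Analysis: linear interpolation between bracketing concentrations; unreached endpoints set to highest concentration. The concentration for 50% growth inhibition is given as GI50. TGI marks complete inhibition of growth.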

Columns and labels:
Assay in all cases: NCI tumour cell line growth inhibition, 48 h
786-0 renal = tested on: 786-0 renal
A498 renal = tested on: A498 renal
A549 NSCLC = tested on: A549 NSCLC
ACHN renal = tested on: ACHN renal
BT-549 breast = tested on: BT-549 breast
CAKI-1 renal = tested on: CAKI-1 renal
CCRF-CEM leukemia = tested on: CCRF-CEM leukemia
COLO 205 colon = tested on: COLO 205 colon
DLD-1 colon = tested on: DLD-1 colon
DMS 114 small cell lung = tested on: DMS 114 small cell lung
DMS 273 small cell lung = tested on: DMS 273 small cell lung
DU-145 prostate = tested on: DU-145 prostate
EKVX NSCLC = tested on: EKVX NSCLC
HCC-2998 colon = tested on: HCC-2998 colon
HCT-116 colon = tested on: HCT-116 colon
HCT-15 colon = tested on: HCT-15 colon
HL-60(TB) leukemia = tested on: HL-60(TB) leukemia
HOP-18 NSCLC = tested on: HOP-18 NSCLC
HOP-62 NSCLC = tested on: HOP-62 NSCLC
HOP-92 NSCLC = tested on: HOP-92 NSCLC
HS 578T breast = tested on: HS 578T breast
HT29 colon = tested on: HT29 colon
IGROV1 ovarian = tested on: IGROV1 ovarian
K-562 leukemia = tested on: K-562 leukemia
KM12 colon = tested on: KM12 colon
KM20L2 colon = tested on: KM20L2 colon
LOX IMVI melanoma = tested on: LOX IMVI melanoma
LXFL 529 NSCLC = tested on: LXFL 529 NSCLC
M14 melanoma = tested on: M14 melanoma
M19-MEL melanoma = tested on: M19-MEL melanoma
MALME-3M melanoma = tested on: MALME-3M melanoma
MCF7 breast = tested on: MCF7 breast
MDA-MB-231 breast = tested on: MDA-MB-231 breast
MDA-MB-435 = tested on: MDA-MB-435
MOLT-4 leukemia = tested on: MOLT-4 leukemia
NCI-H226 lung = tested on: NCI-H226 lung
NCI-H23 lung = tested on: NCI-H23 lung
NCI-H460 lung = tested on: NCI-H460 lung
NCI-H522 lung = tested on: NCI-H522 lung
OVCAR-3 ovarian = tested on: OVCAR-3 ovarian
OVCAR-4 ovarian = tested on: OVCAR-4 ovarian
OVCAR-5 ovarian = tested on: OVCAR-5 ovarian
OVCAR-8 ovarian = tested on: OVCAR-8 ovarian
PC-3 prostate = tested on: PC-3 prostate
RPMI-8226 leukemia = tested on: RPMI-8226 leukemia
RXF 393 renal = tested on: RXF 393 renal
RXF-631 renal = tested on: RXF-631 renal
SF-268 CNS = tested on: SF-268 CNS
SF-295 CNS = tested on: SF-295 CNS
SF-539 CNS = tested on: SF-539 CNS
SK-MEL-2 melanoma = tested on: SK-MEL-2 melanoma
SK-MEL-28 melanoma = tested on: SK-MEL-28 melanoma
SK-MEL-5 melanoma = tested on: SK-MEL-5 melanoma
SK-OV-3 ovarian = tested on: SK-OV-3 ovarian
SN12C renal = tested on: SN12C renal
SNB-19 CNS = tested on: SNB-19 CNS
SNB-75 CNS = tested on: SNB-75 CNS
SNB-78 CNS = tested on: SNB-78 CNS
SR leukemia = tested on: SR leukemia
SW-620 colon = tested on: SW-620 colon
T-47D breast = tested on: T-47D breast
TK-10 renal = tested on: TK-10 renal
U251 CNS = tested on: U251 CNS
UACC-257 melanoma = tested on: UACC-257 melanoma
UACC-62 melanoma = tested on: UACC-62 melanoma
UO-31 renal = tested on: UO-31 renal

CCCCNCCCNCCCNC(=O)c1csc(-c2csc(CCNC(=O)C(NC(=O)C(C)C(O)C(C)NC(=O)C(NC(=O)c3nc(C(CC(N)=O)NCC(N)C(N)=O)nc(N)c3C)C(OC3OC(CO)C(O)C(O)C3OC3OC(CO)C(O)C(OC(N)=O)C3O)c3cnc[nH]3)C(C)O)n2)n1 (stereo not drawn)
GI50 (786-0 renal): 1.46 µM
TGI (786-0 renal): 50 µM and 5.24 µM
GI50 (A498 renal): 1.25 µM
TGI (A498 renal): 50 µM and 28.1 µM
GI50 (A549 NSCLC): 1.13 µM
TGI (A549 NSCLC): 10.3 µM and 22.9 µM
GI50 (ACHN renal): 0.0491 µM
TGI (BT-549 breast): > 50 µM
TGI (CAKI-1 renal): 50 µM and 17 µM
GI50 (CCRF-CEM leukemia): 6.4 µM
TGI (CCRF-CEM leukemia): 50 µM and > 100 µM
GI50 (COLO 205 colon): 26.6 µM
TGI (COLO 205 colon): 50 µM and > 89.1 µM
TGI (DLD-1 colon): > 100 µM
TGI (DMS 114 small cell lung): 8.73 µM
TGI (DMS 273 small cell lung): 2.97 µM
TGI (DU-145 prostate): 50 µM
GI50 (EKVX NSCLC): > 50 µM
TGI (EKVX NSCLC): > 50 µM and 61.8 µM
GI50 (HCC-2998 colon): 15.9 µM
TGI (HCC-2998 colon): 50 µM and > 100 µM
GI50 (HCT-116 colon): 0.427 µM
TGI (HCT-116 colon): 50 µM and 14.2 µM
GI50 (HCT-15 colon): 2.12 µM
GI50 (HL-60(TB) leukemia): 3.4 µM
TGI (HL-60(TB) leukemia): 50 µM and > 100 µM
TGI (HOP-18 NSCLC): > 100 µM
GI50 (HOP-62 NSCLC): 0.109 µM
TGI (HOP-62 NSCLC): 8.65 µM
TGI (HOP-92 NSCLC): 1.79 µM
TGI (HS 578T breast): 50 µM
GI50 (HT29 colon): 1.73 µM
TGI (HT29 colon): 50 µM and > 100 µM
GI50 (IGROV1 ovarian): 20.9 µM
TGI (IGROV1 ovarian): 50 µM and > 84 µM
GI50 (K-562 leukemia): 19.6 µM
TGI (K-562 leukemia): 50 µM and > 100 µM
GI50 (KM12 colon): > 50 µM
TGI (KM12 colon): > 100 µM
TGI (KM20L2 colon): > 100 µM
GI50 (LOX IMVI melanoma): 0.194 µM
TGI (LOX IMVI melanoma): 7.15 µM and 6.49 µM
TGI (LXFL 529 NSCLC): > 100 µM
GI50 (M14 melanoma): 34.3 µM
TGI (M14 melanoma): 50 µM and 15.9 µM
TGI (M19-MEL melanoma): > 100 µM
GI50 (MALME-3M melanoma): 0.697 µM
TGI (MALME-3M melanoma): 16.9 µM
TGI (MCF7 breast): 37.7 µM
TGI (MDA-MB-231 breast): 50 µM
TGI (MDA-MB-435): 50 µM
GI50 (MOLT-4 leukemia): 1.22 µM
TGI (MOLT-4 leukemia): 50 µM and > 27.1 µM
GI50 (NCI-H226 lung): 0.477 µM
GI50 (NCI-H23 lung): 0.269 µM
TGI (NCI-H23 lung): 7.42 µM and 2.2 µM
GI50 (NCI-H460 lung): 0.0396 µM
TGI (NCI-H460 lung): 5.22 µM and 13 µM
TGI (NCI-H522 lung): 7.96 µM and 10.1 µM
GI50 (OVCAR-3 ovarian): 30.3 µM
TGI (OVCAR-3 ovarian): 50 µM and 22.9 µM
GI50 (OVCAR-4 ovarian): 0.459 µM
GI50 (OVCAR-5 ovarian): 5.86 µM
TGI (OVCAR-5 ovarian): 50 µM and > 44.5 µM
GI50 (OVCAR-8 ovarian): 0.908 µM
TGI (OVCAR-8 ovarian): 12.1 µM and 40.4 µM
TGI (PC-3 prostate): 50 µM
GI50 (RPMI-8226 leukemia): 19.7 µM
TGI (RPMI-8226 leukemia): > 100 µM
GI50 (RXF 393 renal): 0.443 µM and 0.171 µM
TGI (RXF 393 renal): 2.66 µM and 1.15 µM
TGI (RXF-631 renal): > 100 µM
GI50 (SF-268 CNS): 3.16 µM
TGI (SF-268 CNS): 50 µM and 15.2 µM
TGI (SF-295 CNS): 1.76 µM
GI50 (SF-539 CNS): 0.0449 µM
TGI (SF-539 CNS): 0.357 µM and 0.235 µM
TGI (SK-MEL-2 melanoma): 17.3 µM
GI50 (SK-MEL-28 melanoma): > 50 µM
TGI (SK-MEL-28 melanoma): > 75.7 µM
GI50 (SK-MEL-5 melanoma): 3.14 µM
TGI (SK-MEL-5 melanoma): 50 µM and 11.6 µM
GI50 (SK-OV-3 ovarian): 9.49 µM
TGI (SK-OV-3 ovarian): 50 µM and 36.2 µM
GI50 (SN12C renal): 1.13 µM
TGI (SN12C renal): 50 µM and 8.53 µM
TGI (SNB-19 CNS): 50 µM and > 65.7 µM
GI50 (SNB-75 CNS): 0.0257 µM
TGI (SNB-75 CNS): 0.716 µM and 3.37 µM
TGI (SNB-78 CNS): > 100 µM
GI50 (SR leukemia): 7.28 µM
TGI (SR leukemia): 50 µM and > 100 µM
GI50 (SW-620 colon): 11 µM
TGI (SW-620 colon): 50 µM and > 100 µM
TGI (T-47D breast): 50 µM
GI50 (TK-10 renal): > 50 µM
TGI (TK-10 renal): > 50 µM and 58.2 µM
GI50 (U251 CNS): 0.807 µM
TGI (U251 CNS): 50 µM and 8.07 µM
GI50 (UACC-257 melanoma): 0.106 µM
GI50 (UACC-62 melanoma): 0.68 µM
TGI (UACC-62 melanoma): 11.8 µM and 4.8 µM
TGI (UO-31 renal): 15.8 µM and 3.81 µM
